Here are results for eight compounds from patent US20220048896A1, “PYRAZOLE COMPOUNDS SUBSTITUTED WITH HETEROARYL AND PHARMACEUTICAL USE THEREOF” (Japan Tobacco Inc., priority 2018, published 2022).

Format in all cases: cell-based
Data set [1] deals with Salmonella typhimurium TA1535. Nature of the data set: Ames test (reverse mutation test), strain TA1535. For orientation: The Ames test detects mutagens through reverse mutation in bacteria.
Procedure: (§1) Metabolites 1 to 3 and Metabolites A to E were each tested herein. The purpose of this test is to evaluate the potential of each metabolite to induce reverse mutations in the standard strains of Salmonella typhimurium (TA98, TA1537, TA100, and TA1535) and Escherichia coli (WP2uvrA), in either the presence or absence of a rat liver metabolic activation system (S9 mix).
(§2) The solvent used herein was dimethyl sulfoxide (DMSO, 100 μL/plate).
(§3) The test was performed by the pre-incubation method with or without S9 mix. When the test was performed without S9 mix, sodium phosphate buffer solution (pH 7.4) was added.
(§4) 0.5 mL of S9 mix or 0.5 mL of 0.1 mol/L sodium phosphate buffer solution (pH 7.4), and 0.1 mL of the bacterial culture solution were added to a test tube containing 0.1 mL of the negative control formulation (DMSO alone), the metabolite, or the positive control formulation. The mixtures were pre-incubated at 37° C. for 20 minutes while shaking. After the pre-incubation period, 2 mL of top agar were added and the mixtures were vortex-mixed and seeded onto plates. Two plates per treatment were used. Each plate was incubated at 37±1° C. for 48 hours or more and the revertant colonies were counted. The mean number of revertant colonies for each treatment plate was then calculated. […]
Data set [2] relates to Salmonella typhimurium TA100. Nature of the data set: Ames test (reverse mutation test), strain TA100. The note with it: in the presence of S9 mix.
Procedure: as §1, §2, §3
(§5) 0.5 mL of S9 mix or 0.5 mL of 0.1 mol/L sodium phosphate buffer solution (pH 7.4), and 0.1 mL of the bacterial culture solution were added to a test tube containing 0.1 mL of the negative control formulation (DMSO alone), the metabolite, or the positive control formulation. The mixtures were pre-incubated at 37° C. for 20 minutes while shaking. After the pre-incubation period, 2 mL of top agar were added and the mixtures were vortex-mixed and seeded onto plates. Two plates per treatment were used. Each plate was incubated at 37±1° C. for 48 hours or more and the revertant colonies were counted. The mean number of revertant colonies for each treatment plate was then calculated. The presence or absence of growth inhibition due to any antibacterial effect of the test article and precipitation of the test article was observed grossly or under a stereomicroscope. […] Evaluation was based on mean values with no statistical comparisons being used.
For data set [3], the system named is Salmonella typhimurium TA98. Nature of the data set: Ames test (reverse mutation test), strain TA98. Conditions: for potential to induce reverse mutations, TA98: in the presence of S9 mix.
Procedure: as §1, §2, §3, §5
In data set [4] the test system is Salmonella typhimurium TA1537. Description: Ames test (reverse mutation test), strain TA1537.
Procedure: as §1, §2, §3, §5
In data set [5] the test system is Escherichia coli WP2uvrA. Nature of the data set: Ames test (reverse mutation test), strain WP2uvrA. The note with it: in the absence of S9 mix.
Procedure: as §1, §2, §3, §4

Take `Nc1cc(-c2cccc(OC(F)(F)F)c2)n(-c2cccc(F)c2)n1` [Metabolite D]: the “potential to induce reverse mutations, TA1535” value in data set [1] (in the absence of S9 mix) was “had potential to induce reverse mutations”. In addition, the “potential to induce reverse mutations, TA100” value (shortened to “potential … TA100”) in data set [2] is “had potential to induce reverse mutations”.
Turning to `Nc1cc(-c2cc(F)cc(OC(F)(F)F)c2)n(-c2cncc(F)c2)n1` [Metabolite 2], the “Number of revertant colonies TA98” value in data set [3] (S9 mix +, 6.9 μg/plate) is reported as 35; in data set [3] (S9 mix +, 21 μg/plate), 37; in data set [3] (S9 mix +, 62 μg/plate) it was 35; in data set [3] (S9 mix +, 185 μg/plate), 36; in data set [3] (S9 mix +, 556 μg/plate), 22; in data set [3] (S9 mix +, 1667 μg/plate), 20. Also, the “Number of revertant colonies TA98” value in data set [3] (S9 mix +, 5000 μg/plate) was 16; in data set [3] (S9 mix −, 6.9 μg/plate), 30; in data set [3] (S9 mix −, 21 μg/plate) it was 30; in data set [3] (S9 mix −, 62 μg/plate) it was 28; in data set [3] (S9 mix −, 185 μg/plate), 28; in data set [3] (S9 mix −, 556 μg/plate) it was 12. Besides, the “Number of revertant colonies TA98” value in data set [3] (S9 mix −, 1667 μg/plate) is given as 9; in data set [3] (S9 mix −, 5000 μg/plate), 7.
As for `Cc1cccc(-n2nc(N)cc2-c2cccc(OC(F)(F)F)c2)c1` [Metabolite E], in data set [3], the “potential to induce reverse mutations, TA98” value (“potential … TA98” for short) was “had potential to induce reverse mutations”. Further, the “potential … TA100” value in data set [2] is on record as “had potential to induce reverse mutations”. In data set [4] (in the presence of S9 mix), the “potential to induce reverse mutations, TA1537” value (shortened to “potential … TA1537”) is listed as “had potential to induce reverse mutations”.
On to `CC(C)(Oc1cc(F)cc(-c2cc(N)nn2-c2cnc(C(F)(F)F)nc2)c1)C(F)(F)F` [Metabolite 1], for which the “Number of revertant colonies TA98” value in data set [3] (S9 mix +, 6.9 μg/plate) came to 37; in data set [3] (S9 mix +, 21 μg/plate), 39; in data set [3] (S9 mix +, 62 μg/plate) it was 40; in data set [3] (S9 mix +, 185 μg/plate) it was 40; in data set [3] (S9 mix +, 556 μg/plate), 34; in data set [3] (S9 mix +, 1667 μg/plate), 27. Besides, the “Number of revertant colonies TA98” value in data set [3] (S9 mix +, 5000 μg/plate) is listed as 21; in data set [3] (S9 mix −, 6.9 μg/plate), 32; in data set [3] (S9 mix −, 21 μg/plate) it was 32; in data set [3] (S9 mix −, 62 μg/plate), 31; in data set [3] (S9 mix −, 185 μg/plate), 29; in data set [3] (S9 mix −, 556 μg/plate), 30. Besides, the “Number of revertant colonies TA98” value in data set [3] (S9 mix −, 1667 μg/plate) came to 15; in data set [3] (S9 mix −, 5000 μg/plate), 7.
Take `Cc1ccc(-n2nc(N)cc2-c2cccc(OCC(F)(F)F)c2)cc1` [Metabolite C]: the “potential to induce reverse mutations, WP2uvrA” value in data set [5] is “had potential to induce reverse mutations”. Also, the “potential … TA98” value in data set [3] is “had potential to induce reverse mutations”. The “potential … TA100” value in data set [2] is listed as “had potential to induce reverse mutations”. For the same compound, in data set [4] (in the presence of S9 mix), the “potential … TA1537” value is reported as “had potential to induce reverse mutations”.
Turning to `CC(C)(OCc1cc(F)cc(-c2cc(N)nn2-c2ccc(F)cc2)c1)C(F)(F)F` [Metabolite A, reference compound], in data set [3], the “potential … TA98” value is on record as “had potential to induce reverse mutations”. The “potential … TA1537” value in data set [4] (in the presence of S9 mix) is “had potential to induce reverse mutations”.
Regarding `Nc1cc(-c2cc(F)cc(OC(F)(F)F)c2)n(-c2cncc(C(F)(F)F)c2)n1` [Metabolite 3], the “Number of revertant colonies TA98” value is recorded as 36 in data set [3] (S9 mix +, 6.9 μg/plate); 38 in data set [3] (S9 mix +, 21 μg/plate); 38 in data set [3] (S9 mix +, 62 μg/plate); 33 in data set [3] (S9 mix +, 185 μg/plate); 27 in data set [3] (S9 mix +, 556 μg/plate); 25 in data set [3] (S9 mix +, 1667 μg/plate). For the same compound, the “Number of revertant colonies TA98” value in data set [3] (S9 mix +, 5000 μg/plate) is 17; in data set [3] (S9 mix −, 6.9 μg/plate), 29; in data set [3] (S9 mix −, 21 μg/plate) it was 28; in data set [3] (S9 mix −, 62 μg/plate), 29; in data set [3] (S9 mix −, 185 μg/plate), 26; in data set [3] (S9 mix −, 556 μg/plate), 24. Besides, the “Number of revertant colonies TA98” value in data set [3] (S9 mix −, 1667 μg/plate) is 18; in data set [3] (S9 mix −, 5000 μg/plate), 14.
Turning to `Nc1cc(-c2cccc(OCC(F)(F)F)c2)n(-c2ccc(F)cc2)n1` [Metabolite B], the “potential to induce reverse mutations, TA1535” value in data set [1] (in the presence of S9 mix) was “had potential to induce reverse mutations”. Further, in data set [3], the “potential … TA98” value is listed as “had potential to induce reverse mutations”. The “potential … TA100” value in data set [2] was “had potential to induce reverse mutations”. In addition, the “potential … TA1537” value in data set [4] (in the absence of S9 mix) and in data set [4] (in the presence of S9 mix) was “had potential to induce reverse mutations” each time.
